{"source": "ChEMBL document CHEMBL3885881", "about": "“DrugMatrix”", "species": "Rattus norvegicus", "test": "DrugMatrix - Regimen: Daily Repeat", "format": "toxicity, organism-based, Sprague-Dawley", "design": "regimen Daily Repeat, gender Male, age 6-8 weeks", "conditions": "in vivo, sc, […], route subcutaneous, dose 2.5 mg/Kg, dose level High; for ABSOLUTE BASOPHIL / ABSOLUTE EOSINOPHIL / ABSOLUTE LYMPHOCYTE / ABSOLUTE MONOCYTE / ABSOLUTE SEGMENTED NEUTROPHIL / BASOPHIL / EOSINOPHIL / ERYTHROCYTE COUNT / HEMATOCRIT / HEMOGLOBIN / LEUKOCYTE COUNT / LYMPHOCYTE / MEAN CORPUSCULAR HEMOGLOBIN / MEAN CORPUSCULAR HEMOGLOBIN CONCENTRATION / MEAN CORPUSCULAR VOLUME / MONOCYTE / NEUTROPHIL / NUCLEATED RED BLOOD CELLS / PLATELET COUNT: tissue Blood; for ALANINE AMINOTRANSFERASE / ALBUMIN / ALKALINE PHOSPHATASE / ASPARTATE AMINOTRANSFERASE / BLOOD UREA NITROGEN / CARBON DIOXIDE / CHLORIDE / CHOLESTEROL / CREATINE PHOSPHOKINASE / CREATININE / GLUCOSE / LACTATE DEHYDROGENASE / LIPASE / PHOSPHORUS / POTASSIUM / SODIUM / TOTAL BILIRUBIN / TOTAL PROTEIN / URIC ACID: tissue Plasma"}
{"compound": "CC1(C)O[C@@H]2C[C@H]3[C@@H]4C[C@H](F)C5=CC(=O)C=C[C@]5(C)[C@@]4(F)[C@@H](O)C[C@]3(C)[C@]2(C(=O)CO)O1", "note": "[FLUOCINOLONE ACETONIDE]", "values": [{"measurement": "ABSOLUTE BASOPHIL", "setting": "72 h, time 3 day", "result": 0, "unit": "CELLS/uL"}, {"measurement": "ABSOLUTE EOSINOPHIL", "setting": "72 h, time 3 day", "result": 0, "unit": "CELLS/uL"}, {"measurement": "ABSOLUTE LYMPHOCYTE", "setting": "72 h, time 3 day", "result": 365.67, "unit": "CELLS/uL"}, {"measurement": "ABSOLUTE MONOCYTE", "setting": "72 h, time 3 day", "result": 12.67, "unit": "CELLS/uL"}, {"measurement": "ABSOLUTE SEGMENTED NEUTROPHIL", "setting": "72 h, time 3 day", "result": 5188.33, "unit": "CELLS/uL"}, {"measurement": "BASOPHIL", "setting": "72 h, time 3 day", "result": 0, "unit": "%"}, {"measurement": "EOSINOPHIL", "setting": "72 h, time 3 day", "result": 0, "unit": "%"}, {"measurement": "ERYTHROCYTE COUNT", "setting": "72 h, time 3 day", "result": 4.97, "unit": "x10E6/uL"}, {"measurement": "HEMATOCRIT", "setting": "72 h, time 3 day", "result": 32.1, "unit": "%"}, {"measurement": "HEMOGLOBIN", "setting": "72 h, time 3 day", "result": 11.87, "unit": "G/DL"}, {"measurement": "LEUKOCYTE COUNT", "setting": "72 h, time 3 day", "result": 5.57, "unit": "x10E3/uL"}, {"measurement": "LYMPHOCYTE", "setting": "72 h, time 3 day", "result": 6.67, "unit": "%"}, {"measurement": "MEAN CORPUSCULAR HEMOGLOBIN", "setting": "72 h, time 3 day", "result": 24.1, "unit": "pg"}, {"measurement": "MEAN CORPUSCULAR HEMOGLOBIN CONCENTRATION", "setting": "72 h, time 3 day", "result": 37.03, "unit": "G/DL"}, {"measurement": "MEAN CORPUSCULAR VOLUME", "setting": "72 h, time 3 day", "result": 64.97, "unit": "fL"}, {"measurement": "MONOCYTE", "setting": "72 h, time 3 day", "result": 0.33, "unit": "%"}, {"measurement": "NEUTROPHIL", "setting": "72 h, time 3 day", "result": 93, "unit": "%"}, {"measurement": "NUCLEATED RED BLOOD CELLS", "setting": "72 h, time 3 day", "result": "0.67 /100WBC"}, {"measurement": "PLATELET COUNT", "setting": "72 h, time 3 day", "result": 1062, "unit": "x10E3/uL"}, {"measurement": "ALANINE AMINOTRANSFERASE", "setting": "72 h, time 3 day", "result": 159.67, "unit": "u/L"}, {"measurement": "ALBUMIN", "setting": "72 h, time 3 day", "result": 4.33, "unit": "G/DL"}, {"measurement": "ALKALINE PHOSPHATASE", "setting": "72 h, time 3 day", "result": 320.67, "unit": "u/L"}, {"measurement": "ASPARTATE AMINOTRANSFERASE", "setting": "72 h, time 3 day", "result": 309.33, "unit": "u/L"}, {"measurement": "BLOOD UREA NITROGEN", "setting": "72 h, time 3 day", "result": 24.33, "unit": "mg/dL"}, {"measurement": "CARBON DIOXIDE", "setting": "72 h, time 3 day", "result": 26, "unit": "mmol/L"}, {"measurement": "CHLORIDE", "setting": "72 h, time 3 day", "result": 97, "unit": "MEQ/L"}, {"measurement": "CHOLESTEROL", "setting": "72 h, time 3 day", "result": 133, "unit": "mg/dL"}, {"measurement": "CREATINE PHOSPHOKINASE", "setting": "72 h, time 3 day", "result": 322, "unit": "u/L"}, {"measurement": "CREATININE", "setting": "72 h, time 3 day", "result": 0.18, "unit": "mg/dL"}, {"measurement": "GLUCOSE", "setting": "72 h, time 3 day", "result": 463, "unit": "mg/dL"}, {"measurement": "LACTATE DEHYDROGENASE", "setting": "72 h, time 3 day", "result": 822, "unit": "u/L"}, {"measurement": "LIPASE", "setting": "72 h, time 3 day", "result": 9.67, "unit": "u/L"}, {"measurement": "PHOSPHORUS", "setting": "72 h, time 3 day", "result": 10.6, "unit": "mg/dL"}, {"measurement": "POTASSIUM", "setting": "72 h, time 3 day", "result": 4.57, "unit": "MEQ/L"}, {"measurement": "SODIUM", "setting": "72 h, time 3 day", "result": 142.47, "unit": "MEQ/L"}, {"measurement": "TOTAL BILIRUBIN", "setting": "72 h, time 3 day", "result": 0.27, "unit": "mg/dL"}, {"measurement": "TOTAL PROTEIN", "setting": "72 h, time 3 day", "result": 5.4, "unit": "G/DL"}, {"measurement": "URIC ACID", "setting": "72 h, time 3 day", "result": 1.03, "unit": "mg/dL"}, {"measurement": "ABSOLUTE BASOPHIL", "setting": "120 h, time 5 day", "result": 0, "unit": "CELLS/uL"}, {"measurement": "ABSOLUTE EOSINOPHIL", "setting": "120 h, time 5 day", "result": 0, "unit": "CELLS/uL"}, {"measurement": "ABSOLUTE LYMPHOCYTE", "setting": "120 h, time 5 day", "result": 450, "unit": "CELLS/uL"}, {"measurement": "ABSOLUTE MONOCYTE", "setting": "120 h, time 5 day", "result": 219.33, "unit": "CELLS/uL"}, {"measurement": "ABSOLUTE SEGMENTED NEUTROPHIL", "setting": "120 h, time 5 day", "result": 11864, "unit": "CELLS/uL"}, {"measurement": "BASOPHIL", "setting": "120 h, time 5 day", "result": 0, "unit": "%"}, {"measurement": "EOSINOPHIL", "setting": "120 h, time 5 day", "result": 0, "unit": "%"}, {"measurement": "ERYTHROCYTE COUNT", "setting": "120 h, time 5 day", "result": 5.21, "unit": "x10E6/uL"}, {"measurement": "HEMATOCRIT", "setting": "120 h, time 5 day", "result": 33.17, "unit": "%"}, {"measurement": "HEMOGLOBIN", "setting": "120 h, time 5 day", "result": 12.2, "unit": "G/DL"}, {"measurement": "LEUKOCYTE COUNT", "setting": "120 h, time 5 day", "result": 12.53, "unit": "x10E3/uL"}, {"measurement": "LYMPHOCYTE", "setting": "120 h, time 5 day", "result": 3.67, "unit": "%"}, {"measurement": "MEAN CORPUSCULAR HEMOGLOBIN", "setting": "120 h, time 5 day", "result": 23.37, "unit": "pg"}, {"measurement": "MEAN CORPUSCULAR HEMOGLOBIN CONCENTRATION", "setting": "120 h, time 5 day", "result": 36.87, "unit": "G/DL"}, {"measurement": "MEAN CORPUSCULAR VOLUME", "setting": "120 h, time 5 day", "result": 63.37, "unit": "fL"}, {"measurement": "MONOCYTE", "setting": "120 h, time 5 day", "result": 1.67, "unit": "%"}, {"measurement": "NEUTROPHIL", "setting": "120 h, time 5 day", "result": 94.67, "unit": "%"}, {"measurement": "NUCLEATED RED BLOOD CELLS", "setting": "120 h, time 5 day", "result": "0 /100WBC"}, {"measurement": "PLATELET COUNT", "setting": "120 h, time 5 day", "result": 587.67, "unit": "x10E3/uL"}, {"measurement": "ALANINE AMINOTRANSFERASE", "setting": "120 h, time 5 day", "result": 194, "unit": "u/L"}, {"measurement": "ALBUMIN", "setting": "120 h, time 5 day", "result": 3.57, "unit": "G/DL"}, {"measurement": "ALKALINE PHOSPHATASE", "setting": "120 h, time 5 day", "result": 289.67, "unit": "u/L"}, {"measurement": "ASPARTATE AMINOTRANSFERASE", "setting": "120 h, time 5 day", "result": 380.33, "unit": "u/L"}, {"measurement": "BLOOD UREA NITROGEN", "setting": "120 h, time 5 day", "result": 24.33, "unit": "mg/dL"}, {"measurement": "CARBON DIOXIDE", "setting": "120 h, time 5 day", "result": 17.67, "unit": "mmol/L"}, {"measurement": "CHLORIDE", "setting": "120 h, time 5 day", "result": 95, "unit": "MEQ/L"}, {"measurement": "CHOLESTEROL", "setting": "120 h, time 5 day", "result": 90, "unit": "mg/dL"}, {"measurement": "CREATINE PHOSPHOKINASE", "setting": "120 h, time 5 day", "result": 1694.33, "unit": "u/L"}, {"measurement": "CREATININE", "setting": "120 h, time 5 day", "result": 0.29, "unit": "mg/dL"}, {"measurement": "GLUCOSE", "setting": "120 h, time 5 day", "result": 635, "unit": "mg/dL"}, {"measurement": "LACTATE DEHYDROGENASE", "setting": "120 h, time 5 day", "result": 429, "unit": "u/L"}, {"measurement": "LIPASE", "setting": "120 h, time 5 day", "result": 10, "unit": "u/L"}, {"measurement": "PHOSPHORUS", "setting": "120 h, time 5 day", "result": 14.6, "unit": "mg/dL"}, {"measurement": "POTASSIUM", "setting": "120 h, time 5 day", "result": 6.12, "unit": "MEQ/L"}, {"measurement": "SODIUM", "setting": "120 h, time 5 day", "result": 139.3, "unit": "MEQ/L"}, {"measurement": "TOTAL BILIRUBIN", "setting": "120 h, time 5 day", "result": 0.2, "unit": "mg/dL"}, {"measurement": "TOTAL PROTEIN", "setting": "120 h, time 5 day", "result": 4.67, "unit": "G/DL"}, {"measurement": "URIC ACID", "setting": "120 h, time 5 day", "result": 3.2, "unit": "mg/dL"}]}
